Data from PubChem BioAssay AID248 (DTP/NCI, 2004).
Where “and” joins values, the source holds several entries; their conditions need not be identical. Equal entries are not always repeated. Inconclusive results and toxic doses are left out. Cut-off read from the data, not from the text of the source: active = T/C of 150% or more; inactive = T/C below 125%.

Tested on: L1210 leukemia ip in BDF1 mice, survival T/C
Experiment: NCI In Vivo Anticancer Drug Screen. Data for tumor model L1210 Leukemia (intraperitoneal) in B6D2F1 (BDF1) mice
Conditions: endpoint: mean survival time, higher = longer survival
How it was run: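 Mice bearing the transplanted tumor received compound or vehicle. Survival of the treated group was divided by that of the vehicle-treated control group to give the ratio.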

[1] = dose: 50.0 mg/kg/injection, schedule: Q01DX009 (ip), vehicle: saline with Tween-80
[2] = dose: 100.0 mg/kg/injection, schedule: Q01DX009 (ip), vehicle: saline with Tween-80
[3] = dose: 100.0 mg/kg/injection, schedule: Q04DX003 (ip), vehicle: saline with Tween-80
[4] = dose: 200.0 mg/kg/injection, schedule: Q01DX009 (ip), vehicle: saline with Tween-80
[5] = dose: 200.0 mg/kg/injection, schedule: Q04DX003 (ip), vehicle: saline with Tween-80
[6] = dose: 100.0 mg/kg/injection, schedule: Q01DX009 (ip), vehicle: Klucel (hydroxypropylcellulose) (HPC)
[7] = dose: 100.0 mg/kg/injection, schedule: Q04DX002 (ip), vehicle: Klucel (hydroxypropylcellulose) (HPC)
[8] = dose: 200.0 mg/kg/injection, schedule: Q01DX009 (ip), vehicle: Klucel (hydroxypropylcellulose) (HPC)
[9] = dose: 200.0 mg/kg/injection, schedule: Q04DX002 (ip), vehicle: Klucel (hydroxypropylcellulose) (HPC)
[10] = dose: 400.0 mg/kg/injection, schedule: Q01DX009 (ip), vehicle: Klucel (hydroxypropylcellulose) (HPC)
[11] = dose: 400.0 mg/kg/injection, schedule: Q04DX002 (ip), vehicle: Klucel (hydroxypropylcellulose) (HPC)

Measured: T/C

CCCCOc1ccc(CC(N)C(=O)O)cc1N(CCCl)CCCl (centres undefined)
inactive: dose: 6.6 mg/kg/injection, schedule: Q01DX001 (ip), vehicle: carboxymethylcellulose (CMC) 111 % of control | dose: 10.0 mg/kg/injection, schedule: Q01DX001 (ip), vehicle: carboxymethylcellulose (CMC) 116 % of control | dose: 10.0 mg/kg/injection, schedule: Q01DX001 (ip), vehicle: saline 122 % of control | dose: 30.0 mg/kg/injection, schedule: Q01DX001 (ip), vehicle: saline 107 % of control | dose: 60.0 mg/kg/injection, schedule: Q01DX001 (ip), vehicle: saline 102 % of control | dose: 90.0 mg/kg/injection, schedule: Q01DX001 (ip), vehicle: saline 101 % of control

Nc1[nH]nc2nc(-c3ccc(Cl)cc3)cnc12
inactive: [1] 104 % of control | [2] 101 % of control | [3] 95 % of control | [4] 98 % of control | [5] 95 % of control

CCCCCCCCCC(=O)OCC1OC(=O)C(C)N(C)C(=O)CN(C)C(=O)C2C(=O)CC(C)N2C(=O)C(C(C)C)NC(=O)C1NC(=O)c1c2nc3c(C(=O)NC4C(=O)NC(C(C)C)C(=O)N5C(C)CC(OC(=O)CCCCCCCCC)C5C(=O)N(C)CC(=O)N(C)C(C(C)C)C(=O)OC4C)ccc(C)c3oc-2c(C)c(=O)c1N (centres undefined)
inactive: dose: 0.2 mg/kg/injection, schedule: Q01DX009 (ip), vehicle: Klucel (hydroxypropylcellulose) (HPC) 92 % of control | dose: 0.4 mg/kg/injection, schedule: Q01DX009 (ip), vehicle: Klucel (hydroxypropylcellulose) (HPC) 94 % of control | dose: 0.6 mg/kg/injection, schedule: Q04DX003 (ip), vehicle: Klucel (hydroxypropylcellulose) (HPC) 97 % of control | dose: 0.8 mg/kg/injection, schedule: Q01DX009 (ip), vehicle: Klucel (hydroxypropylcellulose) (HPC) 96 % of control | dose: 1.2 mg/kg/injection, schedule: Q04DX003 (ip), vehicle: Klucel (hydroxypropylcellulose) (HPC) 95 % of control | dose: 1.6 mg/kg/injection, schedule: Q01DX001 (ip), vehicle: Klucel (hydroxypropylcellulose) (HPC) 92 % of control | dose: 1.6 mg/kg/injection, schedule: Q01DX009 (ip), vehicle: Klucel (hydroxypropylcellulose) (HPC) 92 % of control | dose: 2.4 mg/kg/injection, schedule: Q04DX003 (ip), vehicle: Klucel (hydroxypropylcellulose) (HPC) 90 % of control | dose: 3.2 mg/kg/injection, schedule: Q01DX001 (ip), vehicle: Klucel (hydroxypropylcellulose) (HPC) 92 % of control | dose: 3.2 mg/kg/injection, schedule: Q01DX009 (ip), vehicle: Klucel (hydroxypropylcellulose) (HPC) 89 % of control | dose: 4.8 mg/kg/injection, schedule: Q04DX003 (ip), vehicle: Klucel (hydroxypropylcellulose) (HPC) 91 % of control | dose: 6.4 mg/kg/injection, schedule: Q01DX001 (ip), vehicle: Klucel (hydroxypropylcellulose) (HPC) 91 % of control | dose: 9.6 mg/kg/injection, schedule: Q04DX003 (ip), vehicle: Klucel (hydroxypropylcellulose) (HPC) 87 % of control | dose: 12.8 mg/kg/injection, schedule: Q01DX001 (ip), vehicle: Klucel (hydroxypropylcellulose) (HPC) 89 % of control

C[N+](C)(C)CCP(=O)([O-])O
inactive: dose: 100.0 mg/kg/injection, schedule: Q01DX009 (ip), vehicle: saline 101 % of control | dose: 200.0 mg/kg/injection, schedule: Q01DX009 (ip), vehicle: saline 93 % of control | dose: 400.0 mg/kg/injection, schedule: Q01DX009 (ip), vehicle: saline 95 % of control

O=[N+]([O-])c1ccccc1N=C=S
inactive: dose: 6.25 mg/kg/injection, schedule: Q01DX009 (ip), vehicle: gum acacia 102 % of control | dose: 12.5 mg/kg/injection, schedule: Q01DX009 (ip), vehicle: gum acacia 98 % of control | dose: 25.0 mg/kg/injection, schedule: Q01DX009 (ip), vehicle: gum acacia 97 % of control and 103 % of control | dose: 25.0 mg/kg/injection, schedule: Q04DX002 (ip), vehicle: gum acacia 98 % of control | dose: 50.0 mg/kg/injection, schedule: Q04DX002 (ip), vehicle: gum acacia 106 % of control | dose: 100.0 mg/kg/injection, schedule: Q04DX002 (ip), vehicle: gum acacia 103 % of control

CC(=O)N(CC#CCN(C(C)=O)c1ccccc1)c1ccccc1
inactive: dose: 100.0 mg/kg/injection, schedule: Q04DX002 (ip), vehicle: other 111 % of control | dose: 200.0 mg/kg/injection, schedule: Q04DX002 (ip), vehicle: other 105 % of control | dose: 400.0 mg/kg/injection, schedule: Q04DX002 (ip), vehicle: other 97 % of control

CC(=O)COCC1CO1 (centres undefined)
inactive: [1] 92 % of control | [2] 92 % of control | [4] 100 % of control

O=Cc1ccc([N+](=O)[O-])cc1Cl
inactive: dose: 75.0 mg/kg/injection, schedule: Q01DX001 (ip), vehicle: other 111 % of control | dose: 150.0 mg/kg/injection, schedule: Q01DX001 (ip), vehicle: other 94 % of control | dose: 300.0 mg/kg/injection, schedule: Q01DX001 (ip), vehicle: other 97 % of control

CCCCCCCCCCCCCCn1cnc2c(=S)nc[nH]c21
inactive: dose: 12.5 mg/kg/injection, schedule: Q01DX005 (ip), vehicle: other 101 % of control | dose: 25.0 mg/kg/injection, schedule: Q01DX005 (ip), vehicle: other 101 % of control | dose: 50.0 mg/kg/injection, schedule: Q01DX005 (ip), vehicle: other 96 % of control | dose: 100.0 mg/kg/injection, schedule: Q01DX005 (ip), vehicle: other 96 % of control | dose: 200.0 mg/kg/injection, schedule: Q01DX005 (ip), vehicle: other 95 % of control

CC(C)C1C(C(N)=O)C(=O)OC1(C)C (centres undefined)
inactive: dose: 100.0 mg/kg/injection, schedule: Q01DX001 (ip), vehicle: saline 96 % of control | dose: 200.0 mg/kg/injection, schedule: Q01DX001 (ip), vehicle: saline 98 % of control | dose: 400.0 mg/kg/injection, schedule: Q01DX001 (ip), vehicle: saline 96 % of control

Cc1ncc(C(O)c2ccc(N(C)C)cc2)n1Cc1ccccc1 (centres undefined)
inactive: dose: 100.0 mg/kg/injection, schedule: Q01DX001 (ip), vehicle: Klucel (hydroxypropylcellulose) (HPC) 95 % of control | [6] 100 % of control and 104 % of control | [7] 111 % of control | dose: 100.0 mg/kg/injection, schedule: Q04DX003 (ip), vehicle: Klucel (hydroxypropylcellulose) (HPC) 103 % of control | dose: 200.0 mg/kg/injection, schedule: Q01DX001 (ip), vehicle: Klucel (hydroxypropylcellulose) (HPC) 95 % of control | [8] 103 % of control and 115 % of control | [9] 94 % of control and 115 % of control | dose: 200.0 mg/kg/injection, schedule: Q04DX003 (ip), vehicle: Klucel (hydroxypropylcellulose) (HPC) 105 % of control | dose: 400.0 mg/kg/injection, schedule: Q01DX001 (ip), vehicle: Klucel (hydroxypropylcellulose) (HPC) 89 % of control | [10] 88 % of control | [11] 98 % of control and 99 % of control | dose: 400.0 mg/kg/injection, schedule: Q04DX003 (ip), vehicle: Klucel (hydroxypropylcellulose) (HPC) 103 % of control

CCOC1c2cnc(C)n2C=CN1C(C)=O (centres undefined)
inactive: dose: 50.0 mg/kg/injection, schedule: Q01DX009 (ip), vehicle: water 96 % of control | dose: 100.0 mg/kg/injection, schedule: Q01DX009 (ip), vehicle: water 94 % of control | dose: 100.0 mg/kg/injection, schedule: Q04DX003 (ip), vehicle: water 116 % of control | dose: 200.0 mg/kg/injection, schedule: Q04DX003 (ip), vehicle: water 115 % of control

O=C(Nc1ccccc1F)N(CCO)C1CCCCC1
inactive: [6] 101 % of control | [8] 106 % of control | [10] 101 % of control

CC(C)(C)NC(=O)C1C2CC3OC(=O)C1C3C2 (centres undefined)
inactive: [3] 98 % of control | [5] 101 % of control and 90 % of control | dose: 400.0 mg/kg/injection, schedule: Q04DX003 (ip), vehicle: saline with Tween-80 101 % of control and 98 % of control

CC(CC12CC3CC(CC(C3)C1)C2)NN (centres undefined)
inactive: dose: 25.0 mg/kg/injection, schedule: Q04DX002 (ip), vehicle: Klucel (hydroxypropylcellulose) (HPC) 101 % of control | dose: 50.0 mg/kg/injection, schedule: Q04DX002 (ip), vehicle: Klucel (hydroxypropylcellulose) (HPC) 86 % of control

Cc1cnc(N/N=C/c2ccccc2)nc1-c1ccccc1O
inactive: [7] 103 % of control | [9] 100 % of control | [11] 92 % of control

Cc1ccc(C)c(C[P+](c2ccccc2)(c2ccccc2)c2ccccc2)c1
inactive: dose: 15.0 mg/kg/injection, schedule: Q01DX001 (ip), vehicle: saline 104 % of control
